Assays:
Test in all cases: relative viability (nuclei count vs DMSO), 5 days (fraction); higher = more cells survive
[1] = compound: CC1=C(CC(=O)O)c2cc(F)ccc2/C1=C\c1ccc([S+](C)[O-])cc1 [Sulindac] + Cc1cc(Nc2cc(N3CCN(C)CC3)nc(Sc3ccc(NC(=O)C4CC4)cc3)n2)n[nH]1 [Tozasertib] (partner 0.1 µM)
Outline: (§1)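 Relative viability was taken as the ratio of nuclei in treated wells to nuclei in vehicle wells. Lung cancer cell lines in 1536-well plates received compounds by pin tool one day after seeding, either one drug alone or a fixed anchor-drug dose plus five library-drug doses (not always all listed) in √10 steps. Nuclei were counted on 4× images after 5 days of treatment, and values are medians of duplicate plates.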

[2] = compound: CN[C@@H]1C[C@H]2O[C@@](C)([C@@H]1OC)n1c3ccccc3c3c4c(c5c6ccccc6n2c5c31)C(=O)NC4 [Staurosporine] + Cc1nc(Nc2ncc(C(=O)Nc3c(C)cccc3Cl)s2)cc(N2CCN(CCO)CC2)n1 [Dasatinib] (partner 0.075 µM)
Outline: as §1

[3] = compound: CN[C@@H]1C[C@H]2O[C@@](C)([C@@H]1OC)n1c3ccccc3c3c4c(c5c6ccccc6n2c5c31)C(=O)NC4 [Staurosporine] + Nc1ncn([C@H]2C[C@H](O)[C@@H](CO)O2)c(=O)n1 [Decitabine] (partner 2 µM)
Outline: as §1

[4] = compound: O=c1[nH]cc(F)c(=O)[nH]1 [5-Fluorouracil] + COc1cc2c(Oc3ccc(NC(=O)C4(C(=O)Nc5ccc(F)cc5)CC4)cc3F)ccnc2cc1OCCCN1CCOCC1 [Foretinib] (partner 0.25 µM)
Outline: as §1

UMC-11
relative viability ([1]; first compound 0.08 µM): 0.204
relative viability ([1]; first compound 0.253 µM): 0.192
relative viability ([1]; first compound 0.8 µM): 0.228
relative viability ([1]; first compound 2.53 µM): 0.2
relative viability ([1]; first compound 8 µM): 0.204
relative viability ([2]; first compound 0.005 µM): 0.508
relative viability ([2]; first compound 0.05 µM): 0.149
relative viability ([2]; first compound 0.1581 µM): 0.114
relative viability ([2]; first compound 0.5 µM): 0.0934
relative viability ([3]; first compound 0.005 µM): 0.76
relative viability ([3]; first compound 0.05 µM): 0.192
relative viability ([3]; first compound 0.1581 µM): 0.153
relative viability ([3]; first compound 0.5 µM): 0.371
relative viability ([4]; first compound 0.02 µM): 0.983
relative viability ([4]; first compound 0.2 µM): 0.728
relative viability ([4]; first compound 0.6325 µM): 0.518
relative viability ([4]; first compound 2 µM): 0.396

Reference: the supplement of paper PMC10307832
